Reference: PubChem BioAssay AID602255 (Broad Institute, 2012)
Calls of active or inactive are those of the source.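 The calls were made as follows: active = falling polarization with an AC50 at most ten times the sample's highest valid dose; inconclusive = flat curve at 30 to 70% inhibition, or poor fit; inactive = rising signal, flat weak curves, or AC50 past limit.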

Biological target: Golgi-associated PDZ and coiled-coil motif-containing protein (Homo sapiens) (UniProt Q9HD26)
Assay: disruptors of CAL PDZ reporter peptide binding – biochemical, fluorescence polarization, untagged CAL PDZ, dry powder, dose response (AID 602255)
Conditions: CAL PDZ / TMR peptide fluorescence polarization, 1 h; for activity change, negative = inhibition: at 35 µM (top of the series)

activity change, negative = inhibition	AC50	Structure (SMILES)
inactive	–	O=S(=O)(Nc1cc(Sc2ccccc2)c(O)c2ccccc12)c1ccc(Cl)cc1
inactive	–	COc1ccc(S(=O)(=O)Nc2cc(SCC(=O)O)c(O)c3ccccc23)cc1
–	> 35 µM (inactive)	O=C(O)CSc1cc(NS(=O)(=O)c2ccc(Br)cc2)c2ccccc2c1O
inactive	–	O=S(=O)(Nc1ccc(O)c2ccccc12)c1ccccc1
